Assay results taken from patent US10597388B2, “Pyridazinone herbicides” (FMC CORPORATION, priority 2014, dated 2020).

Assays:
Format in all cases: in vivo
[1] = tested on: wheat (winter wheat, Triticum aestivum); experiment: Test C greenhouse herbicide test, pre- and postemergence
Method in brief: (§1)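 Two application timings: at sowing into a soil/sand blend, and on 2–18 cm seedlings in peat-vermiculite potting mix. A non-phytotoxic, surfactant-containing solvent carried the compounds. Plants were compared with controls and rated visually on 0–100 after 13–15 d.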

[2] = tested on: velvetleaf (Abutilon theophrasti); experiment: as above
Method in brief: as §1

[3] = tested on: nutsedge, yellow (yellow nutsedge, Cyperus esculentus); experiment: as above
Method in brief: as §1

[4] = tested on: lambsquarters (Chenopodium album); experiment: as above
Method in brief: as §1

[5] = tested on: morningglory (Ipomoea coccinea); experiment: as above
Method in brief: as §1

[6] = tested on: foxtail, giant (giant foxtail, Setaria faberii); experiment: as above
Method in brief: as §1

[7] = tested on: oilseed rape (Brassica napus); experiment: as above
Method in brief: as §1

[8] = tested on: pigweed (Amaranthus retroflexus); experiment: as above
Method in brief: as §1

[9] = tested on: johnsongrass (Sorghum halepense); experiment: as above
Method in brief: as §1

corn (Zea mays) = experiment: as above
Method in brief: as §1

[10] = tested on: blackgrass (Alopecurus myosuroides); experiment: as above
Method in brief: as §1

[11] = tested on: crabgrass, large (large crabgrass, Digitaria sanguinalis); experiment: as above
Method in brief: as §1

[12] = tested on: barnyardgrass (Echinochloa crus-galli); experiment: as above
Method in brief: as §1

[13] = tested on: waterhemp (common waterhemp, Amaranthus rudis); experiment: as above
Method in brief: as §1

[14] = tested on: oat, wild (wild oat, Avena fatua); experiment: Test C greenhouse herbicide test, postemergence
Method in brief: (§2)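 Postemergence foliar treatment, 1- to 4-leaf stage (2–18 cm), peat/vermiculite medium; greenhouse 13–15 d; visual rating vs controls, 0 = no effect, 100 = complete control; dash = no result.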

kochia (Kochia scoparia) = experiment: Test C greenhouse herbicide test, postemergence
Method in brief: as §2

[15] = Postemergence, 31 g ai/ha, 0 to 100 scale (0 no effect, 100 complete control)
[16] = Postemergence, 125 g ai/ha, scale 0 to 100, 0 is no effect, 100 is complete control
[17] = Postemergence, 250 g ai/ha, scale 0 to 100, 0 no effect, 100 complete control, 13 to 15 d
[18] = Preemergence, 31 g ai/ha, scale 0 to 100, 0 is no effect, 100 is complete control
[19] = Preemergence, 62 g ai/ha, scale 0 to 100, 0 is no effect, 100 is complete control
[20] = Preemergence, 125 g ai/ha, scale 0 to 100, 0 is no effect, 100 is complete control
[21] = Preemergence, 250 g ai/ha, scale 0 to 100 (0 no effect, 100 complete control)
[22] = postemergence, 62 g ai/ha, scale 0 to 100, 0 no effect, 100 complete control

Compound: Cc1cc(C)c2sc(C)c(-c3c(OC(=O)OC(C)C)c(C)nn(C)c3=O)c2c1 [Compound 67]
- Wheat plant response rating [1, 15]: 0
- Plant response rating, Wheat [1, 16]: 0
- Plant response rating, Wheat [1, 17]: 0
- Plant response rating, Wheat [1, 18]: 0
- Plant response rating, Wheat [1, 19]: 0
- Plant response rating, Wheat [1, 20]: 0
- Wheat plant response rating [1, 21]: 0
- Wheat plant response rating [1, 22]: 0
- Velvetleaf plant response rating [2, 15]: 70
- Plant response rating, Velvetleaf [2, 16]: 85
- Plant response rating, Velvetleaf [2, 17]: 98
- Plant response rating, Velvetleaf [2, 18]: 10
- Plant response rating, Velvetleaf [2, 19]: 35
- Plant response rating, Velvetleaf [2, 20]: 60
- Velvetleaf plant response rating [2, 21]: 75
- Velvetleaf plant response rating [2, 22]: 85
- Nutsedge, Yellow plant response rating [3, 15]: 65
- Plant response rating, Nutsedge, Yellow [3, 16]: 80
- Plant response rating, Nutsedge, Yellow [3, 17]: 85
- Plant response rating, Nutsedge, Yellow [3, 18]: 10
- Plant response rating, Nutsedge, Yellow [3, 19]: 20
- Plant response rating, Nutsedge, Yellow [3, 20]: 55
- Nutsedge, Yellow plant response rating [3, 21]: 70
- Nutsedge, Yellow plant response rating [3, 22]: 70
- Lambsquarters plant response rating [4, 15]: 85
- Plant response rating, Lambsquarters [4, 16]: 90
- Plant response rating, Lambsquarters [4, 17]: 100
- Plant response rating, Lambsquarters [4, 18]: 80
- Plant response rating, Lambsquarters [4, 19]: 80
- Plant response rating, Lambsquarters [4, 20]: 85
- Lambsquarters plant response rating [4, 21]: 85
- Lambsquarters plant response rating [4, 22]: 95
- Morningglory plant response rating [5, 15]: 95
- Plant response rating, Morningglory [5, 16]: 100
- Plant response rating, Morningglory [5, 17]: 100
- Plant response rating, Morningglory [5, 18]: 70
- Plant response rating, Morningglory [5, 19]: 80
- Plant response rating, Morningglory [5, 20]: 80
- Morningglory plant response rating [5, 21]: 90
- Morningglory plant response rating [5, 22]: 95
- Foxtail, Giant plant response rating [6, 15]: 70
- Plant response rating, Foxtail, Giant [6, 16]: 80
- Plant response rating, Foxtail, Giant [6, 17]: 85
- Plant response rating, Foxtail, Giant [6, 18]: 75
- Plant response rating, Foxtail, Giant [6, 19]: 80
- Plant response rating, Foxtail, Giant [6, 20]: 98
- Foxtail, Giant plant response rating [6, 21]: 100
- Foxtail, Giant plant response rating [6, 22]: 75
- Oilseed Rape plant response rating [7, 15]: 40
- Plant response rating, Oilseed Rape [7, 16]: 75
- Plant response rating, Oilseed Rape [7, 17]: 75
- Plant response rating, Oilseed Rape [7, 18]: 0
- Plant response rating, Oilseed Rape [7, 19]: 0
- Plant response rating, Oilseed Rape [7, 20]: 0
- Oilseed Rape plant response rating [7, 21]: 20
- Oilseed Rape plant response rating [7, 22]: 50
- Pigweed plant response rating [8, 15]: 100
- Plant response rating, Pigweed [8, 16]: 80
- Plant response rating, Pigweed [8, 17]: 85
- Plant response rating, Pigweed [8, 18]: 75
- Plant response rating, Pigweed [8, 19]: 90
- Plant response rating, Pigweed [8, 20]: 95
- Pigweed plant response rating [8, 21]: 100
- Pigweed plant response rating [8, 22]: 85
- Johnsongrass plant response rating [9, 15]: 5
- Plant response rating, Johnsongrass [9, 16]: 5
- Plant response rating, Johnsongrass [9, 17]: 10
- Plant response rating, Johnsongrass [9, 18]: 10
- Plant response rating, Johnsongrass [9, 19]: 20
- Plant response rating, Johnsongrass [9, 20]: 10
- Johnsongrass plant response rating [9, 21]: 30
- Johnsongrass plant response rating [9, 22]: 5
- Corn plant response rating (corn (Zea mays); [15]): 5
- Plant response rating, Corn (corn (Zea mays); [16]): 10
- Plant response rating, Corn (corn (Zea mays); [17]): 20
- Plant response rating, Corn (corn (Zea mays); [18]): 0
- Plant response rating, Corn (corn (Zea mays); [19]): 0
- Plant response rating, Corn (corn (Zea mays); [20]): 0
- Corn plant response rating (corn (Zea mays); [21]): 0
- Corn plant response rating (corn (Zea mays); [22]): 5
- Blackgrass plant response rating [10, 15]: 40
- Plant response rating, Blackgrass [10, 16]: 65
- Plant response rating, Blackgrass [10, 17]: 80
- Plant response rating, Blackgrass [10, 18]: 60
- Plant response rating, Blackgrass [10, 19]: 30
- Plant response rating, Blackgrass [10, 20]: 40
- Blackgrass plant response rating [10, 21]: 60
- Blackgrass plant response rating [10, 22]: 60
- Crabgrass, Large plant response rating [11, 15]: 35
- Plant response rating, Crabgrass, Large [11, 16]: 35
- Plant response rating, Crabgrass, Large [11, 17]: 40
- Plant response rating, Crabgrass, Large [11, 18]: 10
- Plant response rating, Crabgrass, Large [11, 19]: 70
- Plant response rating, Crabgrass, Large [11, 20]: 10
- Crabgrass, Large plant response rating [11, 21]: 65
- Crabgrass, Large plant response rating [11, 22]: 35
- Barnyardgrass plant response rating [12, 15]: 25
- Plant response rating, Barnyardgrass [12, 16]: 35
- Plant response rating, Barnyardgrass [12, 17]: 45
- Plant response rating, Barnyardgrass [12, 18]: 5
- Plant response rating, Barnyardgrass [12, 19]: 20
- Plant response rating, Barnyardgrass [12, 20]: 40
- Barnyardgrass plant response rating [12, 21]: 80
- Barnyardgrass plant response rating [12, 22]: 35
- Waterhemp plant response rating [13, 15]: 60
- Plant response rating, Waterhemp [13, 16]: 75
- Plant response rating, Waterhemp [13, 17]: 70
- Plant response rating, Waterhemp [13, 18]: 70
- Plant response rating, Waterhemp [13, 19]: 80
- Plant response rating, Waterhemp [13, 20]: 65
- Waterhemp plant response rating [13, 21]: 85
- Waterhemp plant response rating [13, 22]: 70
- Oat, Wild plant response rating [14, 15]: 80
- Plant response rating, Oat, Wild [14, 16]: 90
- Plant response rating, Oat, Wild [14, 17]: 100
- Oat, Wild plant response rating [14, 22]: 85
- Kochia plant response rating (kochia (Kochia scoparia); [15]): 0
- Plant response rating, Kochia (kochia (Kochia scoparia); [16]): 35
- Plant response rating, Kochia (kochia (Kochia scoparia); [17]): 80
- Kochia plant response rating (kochia (Kochia scoparia); [22]): 30
